Data on four compounds can be found in patent publication US11584734B2, “Tricyclic compounds as histone methyltransferase inhibitors” (GLOBAL BLOOD THERAPEUTICS, INC., priority 2017, dated 2023).

This test deals with T1, G9a (Homo sapiens, UniProt Q96KQ7).
T1 sequence (Q96KQ7 1-1210): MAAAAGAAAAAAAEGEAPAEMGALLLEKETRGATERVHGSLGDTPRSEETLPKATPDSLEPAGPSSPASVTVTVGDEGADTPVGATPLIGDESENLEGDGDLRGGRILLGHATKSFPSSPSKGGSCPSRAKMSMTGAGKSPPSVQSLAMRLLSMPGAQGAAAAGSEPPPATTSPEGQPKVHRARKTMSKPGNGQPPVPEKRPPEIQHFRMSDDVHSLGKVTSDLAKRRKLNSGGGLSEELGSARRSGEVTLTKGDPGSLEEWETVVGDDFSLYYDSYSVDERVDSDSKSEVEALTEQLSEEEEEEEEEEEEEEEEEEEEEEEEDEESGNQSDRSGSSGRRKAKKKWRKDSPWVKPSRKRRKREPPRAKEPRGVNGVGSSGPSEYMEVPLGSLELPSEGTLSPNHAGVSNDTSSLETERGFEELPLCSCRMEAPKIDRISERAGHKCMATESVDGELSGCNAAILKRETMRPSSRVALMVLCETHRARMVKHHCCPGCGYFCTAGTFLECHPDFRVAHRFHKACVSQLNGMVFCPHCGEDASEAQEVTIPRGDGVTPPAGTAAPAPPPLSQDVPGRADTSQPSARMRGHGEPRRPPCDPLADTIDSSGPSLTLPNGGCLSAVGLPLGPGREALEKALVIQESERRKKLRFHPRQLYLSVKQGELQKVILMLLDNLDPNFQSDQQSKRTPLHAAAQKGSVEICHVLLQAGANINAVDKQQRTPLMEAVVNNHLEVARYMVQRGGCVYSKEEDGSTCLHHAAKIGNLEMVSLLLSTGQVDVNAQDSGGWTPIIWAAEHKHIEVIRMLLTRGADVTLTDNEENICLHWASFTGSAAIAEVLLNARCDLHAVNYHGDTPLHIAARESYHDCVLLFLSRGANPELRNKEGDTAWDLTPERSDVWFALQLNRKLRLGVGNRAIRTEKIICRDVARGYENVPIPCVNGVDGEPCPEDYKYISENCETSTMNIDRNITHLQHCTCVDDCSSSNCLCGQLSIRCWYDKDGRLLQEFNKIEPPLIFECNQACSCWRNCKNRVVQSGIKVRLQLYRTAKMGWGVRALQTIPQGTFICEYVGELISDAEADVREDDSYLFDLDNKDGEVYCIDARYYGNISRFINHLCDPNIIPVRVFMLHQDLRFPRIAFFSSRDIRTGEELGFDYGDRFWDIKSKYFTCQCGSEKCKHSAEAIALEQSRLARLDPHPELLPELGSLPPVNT
The test can be described thus: G9a AlphaLISA enzymatic activity assay. Conditions: negative log of IC50 in molar, 0.15 nM G9a, 15 uM S-adenosyl-methionine, 100 nM biotinylated histone 3 peptide (1-21). In kind it is biochemical. In general terms: Alpha assays give light when donor and acceptor beads are brought close together.
As usually defined, the IC50 is the concentration at which inhibition is half-maximal. In turn, `CNc1c2c(nc3cc(OCCCNS(C)(=O)=O)c(OC)cc13)CCC2` [Example 62, N-(3-{[7-methoxy-9-(methylamino)-1H,2H,3H-cyclopenta[b]quinolin-6-yl]oxy}propyl)methanesulfonamide] showed an IC50 of 0.933 µM. That is a sub-micromolar value.

`COCCNc1c2c(nc3cc(OCCCN4CCCC4)c(OC(F)F)cc13)CCC2` [Example 32, 7-(difluoromethoxy)-N-(2-methoxyethyl)-6-[3-(pyrrolidin-1-yl)propoxy]-1H,2H,3H-cyclopenta[b]quinolin-9-amine] showed an IC50 of 0.107 µM. This IC50 is about 8.7-fold lower than that of the compound before.

In turn, `COc1cc2c(NC(C)C)c3c(nc2cc1OCCCN1CCCC1)CCC3(C)C` [Example 22, 7-methoxy-1,1-dimethyl-N-(propan-2-yl)-6-[3-(pyrrolidin-1-yl)propoxy]-1H,2H,3H-cyclopenta[b]quinolin-9-amine] had an IC50 of 0.174 µM. This IC50 lies about 1.6-fold higher than the previous one.

On to `COc1cc2c(NC[C@@H]3CCOC3)c3c(nc2cc1OCCCN1CCCC1)CCC3` [Example 29, 7-methoxy-N-{[(3S)-oxolan-3-yl]methyl}-6-[3-(pyrrolidin-1-yl)propoxy]-1H,2H,3H-cyclopenta[b]quinolin-9-amine], for which the IC50 was 0.00603 µM.
